Assays:
[1] = tested on: extensor tonic convulsions; assay: Electroshock induced convulsion inhibition assay (E.S.); assay type: in vivo, mice (Cox standard strain albino male); details: Mus musculus, 1 h; oral dose (gavage); mice; 60 min after administration; 0.1 second, 50 milliampere electroshock through corneal electrodes; inhibition of extensor tonic convulsions in half of the animals
Text: The compounds of Formula I are anticonvulsant agents with a high therapeutic ratio and long half-life and are therefore useful in the treatment and prevention of convulsions in mammals. In particular, the compounds are effective against tonic extensor seizures elicited by maximal electroshock and should therefore be useful for treating generalized tonic-clonic ("grand mal"), cortical focal, complex partial (temporal lobe epilepsy), simple partial (focal motor), and post-traumaticseizures in humans. […] In the electroshock induced convulsion inhibition assay (E.S.), the compound to be tested was dissolved in water (5% --sufficient hydrochloric acid was added for those compounds which were not isolated as a salt in order to effect dissolution) and administered by gavage to each of ten Cox standard strain albino male mice (18-24 g) at the dose level being investigated. Sixty minutes after compound administration, the mice were subjected to a 0.1 second, 50 milliampere electroshock through corneal electrodes. The animals were examined and evaluated immediately after the electroshock for the occurrence of clonic, flexor tonic, or extensor tonic convulsions, or death and the ED50 was determined for each compound as the dose which inhibited the occurrence of extensor tonic convulsions in one half of the animals immediately after the electroshock. For comparison, 18 milliamperes was usually sufficient to produce extensor tonic convulsions in about half of the control animals; at 50 milliamperes, almost all control animals (receiving vehicle only) died.

seizures = details: man, cited from earlier work

Which ED50 [1] does the source give for `Cl.Nc1ccc(C(=O)NC2CCCc3ccccc32)cc1` (stereo not shown) [Example 7, 4-amino-N-(1,2,3,4-tetrahydro-1-naphthalenyl)benzamide hydrochloride] here?
Its ED50 is 44.5 mg/kg.

Which ED50 [1] does the source give for `Nc1ccc(C(=O)Nc2ccc3ccccc3c2)cc1` [Example 12, 4-Amino-N-2-naphthalenylbenzamide] here?
Its ED50 is over 200 mg/kg.

With `Nc1ccc(C(=O)Nc2cccc3c2CCCC3)cc1` [Example 10, 4-Amino-N-(5,6,7,8-tetrahydro-1-naphthalenyl)benzamide] as the molecule, how does the ED50 [1] read?
Its ED50 is 100 mg/kg.

Which ED50 [1] does the source give for `Cl.Nc1ccc(C(=O)Nc2cccc3ccccc23)cc1` [Example 11, 4-Amino-N-1-naphthalenylbenzamide hydrochloride] here?
The ED50 was 62 mg/kg.

Which ED50 [1] does the source give for `Nc1ccc(C(=O)NC2CCc3ccccc32)cc1` (stereo not shown) [Example 8, 4-Amino-N-(2,3-dihydro-1H-inden-1-yl)benzamide] here?
Its ED50 is 31 mg/kg.

Which “plasma level at which ataxia is obvious” value (seizures; ataxia) does the source give for `O=C1NC(=O)C(c2ccccc2)(c2ccccc2)N1` [phenytoin] here?
The value was 30000 ng/mL.

And the “plasma level at which lethargy is apparent” value (seizures; lethargy)?
Its value is “about 40 mcg/ml”.

What about the “plasma level at which nystagmus is seen” value (seizures; nystagmus) of the same molecule?
Its value is “around 20 mcg/ml”.

What about the “plasma level at which seizures are controlled” value (seizures) of the same molecule?
The value was at least 10 µg/mL.

Which ED50 [1] does the source give for `C[C@H](NC(=O)c1ccc(N)cc1)c1cccc2ccccc12.Cl` [Example 9, (S)-4-amino-N-[1-(1-naphthalenyl)ethyl]benzamide hydrochloride] here?
Its ED50 is 110 mg/kg.

Reference: US4632939A, “Anticonvulsant agents” (Eli Lilly and Company, priority 1985, dated 1986)
